# From patent US11440907B1 (Merck Patent GmbH, priority 2018, dated 2022)
# Test system: XBP1(u)-luciferase splicing reporter in HepG2 hepatoma cells
# Test: HepG2 XBP1 reporter assay (XBP1(u)-Luc)
# Format: cell-based
# Details: 6 hours after compound addition, Table 4
# Text: HepG2 XBP1 Reporter Assay
# HepG2 hepatoma cells were transduced with a retrovirus encoding the cDNA for unspliced (u) XBP1, which contains a non-processed intron, fused to the cDNA for firefly luciferase. Upon induction of ER stress, the non-processed intron of XBP1(u) is spliced out by active IRE1alpha endonuclease. The resulting spliced (s) XBP1 is now in frame with luciferase which causes the production of active luciferase protein, resulting in bioluminescence
# HepG2 XBP1(u)-Luc cells were plated […] Cultured cells with a stably transfected reporter construct were plated at approximately 30,000 cells per well into 96 well multi-well plates for twenty four hours. The testing compounds were then added to the wells in 3-fold serial dilutions using a twenty seven micromolar top concentration. A series of control wells for each cell type received only compound solvent. Six hours after the addition of compound, reporter activity for luciferase was assayed, by addition of the SteadyGlo luminescence reagent (Promega). The reporter luminescence activity was measured using Pherastar plate reader (BMG Labtech). Readings was normalized to DMSO only treated cells, and normalized activities were then used in the IC50 calculations. The HepG2 XBP1 reporter assay data are summarized in Tables 3-5: A<0.6 μM; 0.6 μM≤B<2.0 μM; 2.0 μM≤C<5.0 μM; D≥5.0 μM.
row,IC50,Compound
1,< 600 nM,COc1cc(Cl)c([C@H]2COCCCN2c2cc(C)nc(N)n2)cc1O [C-95]

# Same assay, conditions: Homo sapiens, 6 hours after compound addition, Table 4
row,Compound,IC50
1,"Cc1cc(N2CCCOCC2c2cc(CS(C)(=O)=O)ccc2Cl)nc(N)n1 (stereo in doubt) [C-52, 4-[(R)-3-(2-Chloro-5-methanesulfonylmethyl-phenyl)-[1,4]oxazepan-4-yl]-6-methyl-pyrimidin-2-ylamine]",600 to 2000 nM
2,Cc1cc(N2CCCOCC2c2cc(S(N)(=O)=O)c(Cl)cc2Cl)nc(N)n1 (centres unmarked) [C-8],600 to 2000 nM
3,Cc1cc(N2CCCOCC2c2cc(O)c(Cl)cc2Cl)nc(N)n1 (centres unmarked) [C-9],600 to 2000 nM
4,Cc1cc(N2CCCOCC2c2cc(C)c(Cl)cc2Cl)nc(N)n1 (centres unmarked) [C-10],2000 to 5000 nM
5,CNc1cc(Cl)c(C2COCCCN2c2cc(C)nc(N)n2)cc1C (centres unmarked) [C-25],< 600 nM
6,Cc1cc(N2CCCOCC2c2cc3c(cc2Cl)CCC3)nc(N)n1 (centres unmarked) [C-26],600 to 2000 nM
7,Cc1cc(Cl)c(C2COCCCN2c2cc(N)nc(N)n2)cc1C (centres unmarked) [C-27],600 to 2000 nM
8,COc1cc(Cl)c(C2COCCCN2c2cc(C)nc(N)n2)cc1F (centres unmarked) [C-28],600 to 2000 nM
9,CCOc1cc(C2COCCCN2c2cc(C)nc(N)n2)c(Cl)cc1OC (centres unmarked) [C-29],< 600 nM
10,Cc1cc(N2CCCOCC2c2cc3c(cc2Cl)NCCC3)nc(N)n1 (centres unmarked) [C-43],< 600 nM
11,COC(=O)COc1cc(Cl)c(C2COCCCN2c2cc(C)nc(N)n2)cc1OC (centres unmarked) [C-44],600 to 2000 nM
12,C=CCOc1cc(Cl)c(C2COCCCN2c2cc(C)nc(N)n2)cc1OC (centres unmarked) [C-45],600 to 2000 nM
13,COc1cc(C2COCCCN2c2cc(C)nc(N)n2)c(Cl)cc1Cl (centres unmarked) [C-46],2000 to 5000 nM
14,CCCOc1cc(Cl)c(C2COCCCN2c2cc(C)nc(N)n2)cc1OC (centres unmarked) [C-47],600 to 2000 nM
15,Cc1cc(N2CCCOCC2c2cc(F)c(-c3ccncc3)cc2Cl)nc(N)n1 (centres unmarked) [C-48],600 to 2000 nM
16,"Cc1cc(N2CCCOC[C@@H]2c2ccc(CS(C)(=O)=O)cc2F)nc(N)n1 [C-50, 4-[(S)-3-(2-Fluoro-4-methanesulfonylmethyl-phenyl)-[1,4]oxazepan-4-yl]-6-methyl-pyrimidin-2-ylamine]",< 600 nM
17,"Cc1cc(N2CCCOCC2c2ccc(OCC(N)=O)cc2Cl)nc(N)n1 (centres unmarked) [C-53, 2-{4-[4-(2-Amino-6-methyl-pyrimidin-4-yl)-[1,4]oxazepan-3-yl]-3-chloro-phenoxy}-acetamide]",< 600 nM
18,Cc1cc(N)nc(N2CCCOCC2c2cc3c(cc2Cl)CCN3C)c1 (centres unmarked) [C-54],< 600 nM

row,Compound,IC50
1,Cc1cc(N2CCCOCC2c2cc3c(cc2Cl)OCC(C)(C)CO3)nc(N)n1 (centres unmarked) [C-55],600 to 2000 nM
2,COc1cc(Cl)c(C2COCCCN2c2cc(C)nc(N)n2)cc1OC1CCC1 (centres unmarked) [C-56],2000 to 5000 nM
3,Cc1cc(N2CCCOCC2c2cc(Cl)c(OC(F)F)cc2Cl)nc(N)n1 (centres unmarked) [C-57],600 to 2000 nM
4,Cc1cc(N2CCCOC[C@@H]2c2cc3c(cc2Cl)NCC3)nc(N)n1 [C-59],< 600 nM
5,"Cc1cc(N2CCCOCC2c2ccc(O[C@H](C)CO)cc2Cl)nc(N)n1 (stereo partly drawn) [C-60, (R)-2-{4-[4-(2-Amino-6-methyl-pyrimidin-4-yl)-[1,4]oxazepan-3-yl]-3-chloro-phenoxy}-propan-1-ol]",600 to 2000 nM
6,"Cc1cc(N2CCCOCC2c2ccc(OC[C@H](O)CO)cc2Cl)nc(N)n1 (stereo partly drawn) [C-61, (R)-3-{4-[4-(2-Amino-6-methyl-pyrimidin-4-yl)-[1,4]oxazepan-3-yl]-3-chloro-phenoxy}-propane-1,2-diol]",< 600 nM
7,"Cc1cc(N2CC3(CC3)COCC2c2ccc(CS(C)(=O)=O)cc2Cl)nc(N)n1 (centres unmarked) [C-62, 4-[7-(2-Chloro-4-methanesulfonylmethyl-phenyl)-5-oxa-8-aza-spiro[2.6]non-8-yl]-6-methyl-pyrimidin-2-ylamine]",≥ 5000 nM
8,"Cc1cc(N2CC(C)COCC2c2ccc(CS(C)(=O)=O)cc2Cl)nc(N)n1 (centres unmarked) [C-63, 4-[3-(2-Chloro-4-methanesulfonylmethyl-phenyl)-6-methyl-[1,4]oxazepan-4-yl]-6-methyl-pyrimidin-2-ylamine]",≥ 5000 nM
9,"Cc1cc(N2CCCOC[C@@H]2c2ccc(OC[C@@H](O)CO)cc2Cl)nc(N)n1 [C-64, (S)-3-{4-[(S)-4-(2-Amino-6-methyl-pyrimidin-4-yl)-[1,4]oxazepan-3-yl]-3-chloro-phenoxy}-propane-1,2-diol]",2000 to 5000 nM
10,Cc1cc(N2CCCOC[C@@H]2c2cc3c(cc2Cl)OCC(=O)N3)nc(N)n1 [C-67],≥ 5000 nM
11,Cc1cc(N2CCCOC[C@H]2c2cc3c(cc2Cl)OCC(=O)N3)nc(N)n1 [C-68],< 600 nM
12,Cc1cc(N2CCCOC[C@@H]2c2cc3c(cc2Cl)OCCO3)nc(N)n1 [C-70],< 600 nM
13,Nc1nccc(N2CCCOC[C@H]2c2cc3c(cc2Cl)OCCCO3)n1 [C-71],≥ 5000 nM
14,Nc1nccc(N2CCCOC[C@@H]2c2cc3c(cc2Cl)OCCCO3)n1 [C-72],< 600 nM
15,Cc1cc(N2CCCOCC2c2ccc(CS(C)(=O)=O)cc2OC(F)F)nc(N)n1 (centres unmarked) [C-75],< 600 nM
16,COc1cc(C2COCCCN2c2cc(C)nc(N)n2)c(Cl)cc1N (centres unmarked) [C-76],< 600 nM
17,Cc1cc(N2CCCOCC2c2cc(N)c(C(F)(F)F)cc2Cl)nc(N)n1 (centres unmarked) [C-77],600 to 2000 nM

# The next lines start with the values.
row,IC50,Compound
1,< 600 nM,COc1cc([C@H]2COCCCN2c2cc(C)nc(N)n2)c(Cl)cc1O [C-78]
2,≥ 5000 nM,COc1cc([C@@H]2COCCCN2c2cc(C)nc(N)n2)c(Cl)cc1O [C-79]
3,< 600 nM,COc1cc(Cl)c([C@H]2COCCCN2c2cc(C)nc(N)n2)cc1OC [C-80]
4,≥ 5000 nM,COc1cc(Cl)c([C@@H]2COCCCN2c2cc(C)nc(N)n2)cc1OC [C-81]
5,600 to 2000 nM,Cc1cc(N2CCCOCC2c2ccc(CS(C)(=O)=O)nc2Cl)nc(N)n1 (centres unmarked) [C-82]
6,< 600 nM,CCOc1cc(Cl)c([C@H]2COCCCN2c2cc(C)nc(N)n2)cc1OC [C-85]
7,≥ 5000 nM,CCOc1cc(Cl)c([C@@H]2COCCCN2c2cc(C)nc(N)n2)cc1OC [C-86]
8,600 to 2000 nM,Cc1cc(N2CCCOC[C@@H]2c2cc(Cl)c(O)cc2Cl)nc(N)n1 [C-87]
9,2000 to 5000 nM,Cc1cc(N2CCCOCC2c2cc3c(cc2Cl)CCCN3)nc(N)n1 (centres unmarked) [C-88]
10,600 to 2000 nM,CCOC(=O)COc1cc(Cl)c(C2COCCCN2c2cc(C)nc(N)n2)cc1OC (centres unmarked) [C-89]
11,< 600 nM,Cc1cc(N2CCCOCC2c2cc3c(cc2Cl)OCC2(CC2)CO3)nc(N)n1 (centres unmarked) [C-90]
12,600 to 2000 nM,CCCOc1cc(Cl)c(C2COCCCN2c2cc(C)nc(N)n2)cc1OCC (centres unmarked) [C-91]
13,< 600 nM,Cc1cc(N2CCCOC[C@@H]2c2cc3c(cc2Cl)n(C)c(=O)n3C)nc(N)n1 [C-93]
14,< 600 nM,COc1cc(Cl)c([C@@H]2COCCCN2c2cc(C)nc(N)n2)cc1O [C-94]
15,600 to 2000 nM,Cc1cc(N2CCCOCC2c2cc3c(cc2Cl)COCO3)nc(N)n1 (centres unmarked) [C-96]
16,600 to 2000 nM,COc1cc(C2COCCCN2c2cc(C)nc(N)n2)c(Cl)cc1OCC(N)=O (centres unmarked) [C-97]
17,< 600 nM,COc1cc(C2COCCCN2c2cc(C)nc(N)n2)c(Cl)cc1OCC#N (centres unmarked) [C-98]
18,600 to 2000 nM,COc1cc(Cl)c(C2COCCCN2c2cc(C)nc(N)n2)cc1C (centres unmarked) [C-99]
19,2000 to 5000 nM,Cc1cc(N2CCCOCC2c2cc(Cl)c(F)cc2Cl)nc(N)n1 (centres unmarked) [C-100]
20,600 to 2000 nM,COc1cc(C2COCCCN2c2nc(C)nc(N)n2)c(Cl)cc1N1CCCCC1 (centres unmarked) [C-101]
21,600 to 2000 nM,COc1cc(C2COCCCN2c2ccnc(N)n2)c(Cl)cc1OC1CCCC1 (centres unmarked) [C-102]
22,< 600 nM,CCOc1cc(Cl)c([C@H]2COCCCN2c2cc(C)nc(N)n2)cc1OCC [C-103]
23,≥ 5000 nM,CCOc1cc(Cl)c([C@@H]2COCCCN2c2cc(C)nc(N)n2)cc1OCC [C-104]
